Measurements published in patent US20120082706A1, “MEDICAL DEVICE FOR DRUG DELIVERY” (TERUMO KABUSHIKI KAISHA, priority 2009, published 2012).

Assay: Differential scanning calorimetry (DSC) of drug/compound mixtures (solid solution screening)
Type: physicochemical
Procedure: For the purpose of screening adequate solid dispersions, several exemplary mixtures were prepared, each composed of paclitaxel and a compound of different kind, and these mixtures underwent differential scanning calorimetry (DSC) using a differential scanning calorimeter.
The paclitaxel is a product of SIGMA Corp.
The thus prepared solution was completely freed of ethanol or acetone by vacuum drying. The resulting dry product was placed in an aluminum pan and thereafter underwent DSC in a nitrogen atmosphere at a heating rate of 10° C./min.
For the purpose of observing the properties of the solid solution of HSPC and a drug other than paclitaxel, there were prepared a mixture of HSPC and sirolimus and a mixture of HSPC and simvastatin, as shown in Table 5 below.

SMILES: CC(=O)O[C@H]1C(=O)[C@@]2(C)[C@H]([C@H](OC(=O)c3ccccc3)[C@]3(O)C[C@H](OC(=O)[C@H](O)[C@@H](NC(=O)c4ccccc4)c4ccccc4)C(C)=C1C3(C)C)[C@]1(OC(C)=O)CO[C@@H]1C[C@@H]2O [Comparative Example 4, paclitaxel]
- endothermic peak due to fusion of paclitaxel (DSC thermogram): gave an endothermic peak
- Peak due to fusion of paclitaxel (DSC, nitrogen atmosphere, 10° C./min, 10 mg compound + 10 mg paclitaxel, dried from ethanol or acetone): Yes
